Test results taken from patent publication US8197859B2, “Lipolysis stimulator” (Kao Corporation, priority 2006, dated 2012).

Assays:
Assay type in all cases: cell-based, rat (male Wistar)
[1] = tested on: free adipocytes from abdominal subcutaneous adipose tissue; assay: Test Example 3: lipolysis-stimulating activity (free glycerol) in free adipocytes with norepinephrine; Huang Hua Cai extract and aminophylline; conditions: Rattus norvegicus, Adipocyte, aminophylline singly, 90 nM norepinephrine, control = 100%
Procedure: (§1) Specifically, free adipocytes were recovered from the abdominal subcutaneous adipose tissue of each of one to three male Wistar rats (each having a body weight of 170 to 230 g) by use of a collagenase solution.
(§2) The free adipocytes were incubated at 37° C. for 2 hours in a Hanks buffer solution containing bovine serum albumin and 90 nM norepinephrine (reaction mixture) to which each test substance had been added. The resultant free glycerol was assayed through an enzymatic method (Free Glycerol Reagent, product of Sigma-Aldrich).
(§3) As a control, adipocytes were incubated in the same buffer containing only norepinephrine but no test substance.
(§4) Lipolysis-stimulating activity was calculated by the following equation, with 100% being a control value. Lipolysis-stimulating activity(%)=100×(free glycerol in each group)/(free glycerol in control group)
The procedure of Test Example 1 was repeated, except that caffeine was changed to aminophylline. The following substances were tested: and two different mixtures of Huang Hua Cai extract and aminophylline (hereinafter referred to as “Huang Hua Cai-aminophylline mixture”), i.e., Huang Hua Cai-aminophylline mixture 1 (Huang Hua Cai extract+1 μg/mL aminophylline), and a Huang Hua Cai-aminophylline mixture 2 (Huang Hua Cai extract+3 μg/mL aminophylline).
Aminophylline employed in the test was a commercial product (Sigma-Aldrich). […]

[2] = tested on: free adipocytes from abdominal subcutaneous adipose tissue; assay: Test Example 1: lipolysis-stimulating activity (free glycerol) in free adipocytes with norepinephrine; Huang Hua Cai extract and caffeine; conditions: Rattus norvegicus, Adipocyte, caffeine singly, 90 nM norepinephrine, 37° C., 2 hours, control = 100%
Procedure: The Rodbell's method (Rodbell, M., J. Biol. Chem., 239, 375 (1964)) was employed. Specifically, free adipocytes were recovered from the abdominal subcutaneous adipose tissue of each of one to three male Wistar rats (each having a body weight of 170 to 230 g) by use of a collagenase solution.
The following substances were tested: the Huang Hua Cai extract (singly), caffeine (singly), and two different mixtures of Huang Hua Cai extract and caffeine (hereinafter referred to as “Huang Hua Cai-caffeine mixture”), i.e., Huang Hua Cai-caffeine mixture 1 (Huang Hua Cai extract+10 μg/mL caffeine), and Huang Hua Cai-caffeine mixture 2 (Huang Hua Cai extract+30 μg/mL caffeine).
as §2
To the reaction mixture, added the Huang Hua Cai extract at the final concentration of 0, 3, 10, 30 and 100 μg/mL, respectively, and caffeine at the final concentration of 0, 10 and 30 μg/mL, respectively. […]
Lipolysis-stimulating activity was calculated by the following equation, with 100% being a control value. […]

[3] = tested on: free adipocytes from abdominal subcutaneous adipose tissue; assay: Test Example 2: lipolysis-stimulating activity (free glycerol) in free adipocytes with norepinephrine; Huang Hua Cai extract and theophylline; conditions: Rattus norvegicus, Adipocyte, theophylline singly, 90 nM norepinephrine, control = 100%
Procedure: as §1, §2, §3, §4
The following substances were tested: the Huang Hua Cai extract (singly), theophylline (singly), and two different mixtures of Huang Hua Cai extract and theophylline (hereinafter referred to as “Huang Hua Cai-theophylline mixture”), i.e., Huang Hua Cai-theophylline mixture 1 (Huang Hua Cai extract+1 μg/mL theophylline), and a Huang Hua Cai-theophylline mixture 2 (Huang Hua Cai extract+3 μg/mL theophylline). […]

Structure (SMILES): Cn1c(=O)c2[nH]cnc2n(C)c1=O [Aminophylline, aminophylline]
- activity at 1 µg/mL ([1]; 1 μg/mL): 140%
- activity at 3 µg/mL ([1]; 3 μg/mL): 197%

Structure (SMILES): Cn1c(=O)c2c(ncn2C)n(C)c1=O [Caffeine, caffeine]
- activity at 10 µg/mL ([2]; 10 μg/mL): 157%
- activity at 30 µg/mL ([2]; 30 μg/mL): 207%

Structure (SMILES): Cn1c(=O)c2[nH]cnc2n(C)c1=O [Theophylline, theophylline]
- activity at 1 µg/mL ([3]; 1 μg/mL): 142%
- activity at 3 µg/mL ([3]; 3 μg/mL): 188%
